Test [1] deals with Mice. In words: Tail flick latency in mice. In kind it is in vivo. To be noted: Mus musculus, iv, administered intravenously, ED50 calculated at Tmax, significantly increased the tail flick latency, read-out: ED50 (increase of tail flick latency). On the procedure: Tail Flick Latency in Mice
Mice were trained to sit still in a tail flick apparatus (Ugo Basile, Italy) whilst tail flick latency was measured. The tail was exposed to a focused beam of radiant heat at a point approximately 2.5 cm from the tip. Tail flick latency was defined as the interval between the appliance of the thermal stimulus and withdrawal of the tail. A 12 second cut-off was employed to prevent tissue damage. Four groups of eight mice were treated with vehicle or one of three doses of the test compound, administered intravenously (vehicle: 10% Tween-80 in saline; injection volume 10 ml/kg). Tail flick latency was measured before administration of the test compound and at regular intervals (typically 20, 40 and 60 minutes) after compound administration. The ED50 was calculated at Tmax.

Test [2] deals with T1, human CB1 receptor (Homo sapiens, UniProt P21554).
T1 construct: expressed in transfected cells; host or cells: Chinese Hamster Ovary (CHO) cells
As to the kind of experiment: In-vitro efficacy and potency at the human CB1 receptor expressed in CHO cells (luciferase reporter gene assay). To be noted: CHO cells expressing human CB1 receptor and luciferase reporter gene; 5 h incubation at 37° C. Format: cell-based. The procedure:
In-vitro Determination of Efficacy and Potency at the Human CB1 Receptor Expressed in CHO Cells
Chinese Hamster Ovary (CHO) cells expressing the human CB1 receptor and a luciferase reporter gene were suspended in phenol red/serum free DMEM/F-12 nut mix containing penicillin/streptomycin (50 U/50 μg/ml) and fungizone (1 μg/ml) and seeded into 96 well plates at a density of 3×10^4 cells per well (100 μl final volume). Cells were incubated overnight (approx. 18 h at 37° C., 5% CO2/95% air) prior to assay. […] The stock solutions (10 μl) were added directly to the relevant wells. The plates were incubated at 37° C. for 5 h to allow agonist-induced expression of the luciferase enzyme. Under subdued light, LucLite substrate (Packard; reconstituted as per manufacturer's instructions; 100 μl) was added to each well. Plates were covered with Top Seal and then incubated at room temperature for 5 minutes before counting on the Packard TopCount (single photon counting, 0.01 minute count time, 5 minute count delay).
For orientation: A reporter such as luciferase makes a cellular process visible.

Structures can show the parent of a compound that is named as a salt. Some results are limits rather than exact numbers.

T1 sequence (P21554 whole entry): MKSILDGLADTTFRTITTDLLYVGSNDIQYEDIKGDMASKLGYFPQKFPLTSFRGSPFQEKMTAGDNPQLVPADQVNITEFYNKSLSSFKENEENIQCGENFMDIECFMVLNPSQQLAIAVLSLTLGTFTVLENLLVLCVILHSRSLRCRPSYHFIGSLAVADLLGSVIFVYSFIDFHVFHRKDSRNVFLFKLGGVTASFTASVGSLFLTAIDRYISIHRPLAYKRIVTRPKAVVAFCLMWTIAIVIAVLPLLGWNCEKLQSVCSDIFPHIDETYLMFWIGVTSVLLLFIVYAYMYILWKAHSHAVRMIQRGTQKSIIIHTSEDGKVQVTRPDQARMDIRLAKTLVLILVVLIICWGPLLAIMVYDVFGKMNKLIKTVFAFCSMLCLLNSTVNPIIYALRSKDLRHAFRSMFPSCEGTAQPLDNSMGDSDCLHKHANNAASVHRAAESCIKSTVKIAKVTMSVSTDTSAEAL

Broadly, the ED50 is the dose that gives a 50% effect, or the effect in half of the subjects. With `CCN(CCO)Cc1csc(-c2cn(CC3CCOCC3)c3c(Cl)cccc23)n1` [Example 23C, 7-Chloro-3-(4-{[N-ethyl-N-(2-hydroxyethyl)amino]methyl}-[1,3]-thiazol-2-yl)-1-(tetrahydropyran-4-yl)methyl-1H-indole], the ED50 in test [1] is less than 5 µmol/kg.
As a reminder, the EC50 is the concentration needed to bring the measured effect to its halfway point. A low value points to greater potency. The compound `Clc1cccc2c(-c3nsc(CN4CCCC4)n3)cn(CC3CCOCC3)c12` [Example 15B, 7-chloro-3-{5-[(Pyrrolidin-1-yl)methyl]-[1,2,4]-thiadiazol-3-yl}1-(tetrahydropyran-4-yl)methyl-1H-indole, hydrochloride salt] gave a 50% effective concentration (EC50) in test [2] of 20 nM. In addition, the ED50 in test [1] was less than 5 µmol/kg.
On to `CC(C)N(CCO)Cc1csc(-c2cn(CC3CCOCC3)c3c(Cl)cccc23)n1` [Example 23B, 7-Chloro-3-(4-{[N-(2-hydroxyethyl)-N-isopropylamino]methyl}-1,3-thiazol-2-yl)-1-(tetrahydropyran-4-yl)methyl-1H-indole], for which the ED50 in test [1] is less than 5 µmol/kg.
`COc1cccc2c(-c3noc([C@H]4CCCN4C)n3)cn(CC3CCCCC3)c12` [Example 2G, (R)-1-(Cyclohexyl)methyl-7-methoxy-3-[5-(1-methylpyrrolidin-2-yl)-[1,2,4]oxadiazol-3-yl]-1H-indole, hydrochloride salt]: in test [2], a half-maximal effect (EC50) was put at 31.6 nM. Moreover, in test [1], the 50% effective dose (ED50) was less than 5 µmol/kg.
The like results for `CCN(CCOC)Cc1nc(-c2cn(CC3CCOCC3)c3c(Cl)cccc23)ns1` [Example 15A, 7-chloro-3-(5-{[N-ethyl-N-(2-methoxyethyl)amino]methyl}-[1,2,4]-thiadiazol-3-yl)-1-(tetrahydropyran-4-yl)methyl-1H-indole, hydrochloride salt] were, in that order, 10 nM and less than 5 µmol/kg.
In test [2], `Fc1cccc2c(-c3nsc(CN4CCCC4)n3)cn(CC3CCOCC3)c12` [Example 14B, 7-fluoro-3-{5-[(pyrrolidin-1-yl)methyl]-[1,2,4]-thiadiazol-3-yl}1-(tetrahydropyran-4-yl)methyl-1H-indole, hydrochloride salt] gave an EC50 of 50.1 nM. The ED50 in test [1] was less than 5 µmol/kg.
The like results for `CC1(C)CCCN1Cc1nc(-c2cn(CC3CCOCC3)c3c(Cl)cccc23)no1` [Example 39, 7-Chloro-3-{5-[(2,2-dimethyl-pyrolidin-1-yl)methyl]-[1,2,4]oxadiazol-3-yl}-1-(tetrahydropyran-4-yl)methyl-1H-indole, hydrochloride salt] were, in that order, 31.6 nM and less than 5 µmol/kg.
In test [2], `CCN(CC)Cc1ncc(-c2cn(CC3CCCCC3)c3c(OC)cccc23)o1` [Example 32, 1-(Cyclohexyl)methyl-3-{2-[(diethylamino)methyl]-[1,3]-oxazol-5-yl}-7-methoxy-1H-indole, hydrochloride salt] showed an EC50 of 50.1 nM.
With `CCN(CC)Cc1nc(-c2cn3c4c(cccc24)OC[C@H]3C2CCCCC2)ns1` [Example 13, (R)-3-Cyclohexyl-6-{5-[(diethylamino)methyl]-[1,2,4]-thiadiazol-3-yl}-2,3-dihydropyrrolo[1,2,3-de]-1,4-benzoxazine, hydrochloride salt], in test [2], it took 7.94 nM to reach a half-maximal effect (EC50). For the same compound, in test [1], the ED50 is less than 5 µmol/kg.
In test [2], `CCN(CCO)Cc1nc(-c2cn(CC3CCOCC3)c3c(Cl)cccc23)ns1` [Example 15C, 7-chloro-3-(5-{[N-ethyl-N-(2-hydroxyethyl)amino]methyl}-[1,2,4]-thiadiazol-3-yl)-1-(tetrahydropyran-4-yl)methyl-1H-indole] had an EC50 of 10 nM. Besides, in test [1], the ED50 is less than 5 µmol/kg.
The like results for `COCCN(Cc1csc(-c2cn(CC3CCCCC3)c3c(Cl)cccc23)n1)C(C)C` [Example 20, 7-Chloro-1-(cyclohexyl)methyl-3-(4-{[N-isopropyl-N-(2-methoxyethyl)amino]methyl}-[1,3]-thiazol-2-yl)-1H-indole, hydrochloride salt] were, in that order, 5.01 nM and less than 5 µmol/kg.
As to `CCN1Cc2snc(-c3cn(CC4CCCCC4)c4c(OC)cccc34)c2C1` [Example 33, 1-(Cyclohexyl)methyl-3-(5-ethyl-5,6-dihydro-4H-pyrrolo[3,4-d]isothiazol-3-yl)-7-methoxy-1H-indole, hydrochloride salt], the EC50 in test [2] was 79.4 nM. In other words, the double-digit nanomolar range.
Same read-out and setting: in the case of `COc1cccc2c(-c3nnc(CN4CCCC4)s3)cn(CC3CCCCC3)c12` [Example 38, 1-(Cyclohexyl)methyl-7-methoxy-3-{5-[(pyrrolidin-1-yl)methyl]-[1,3,4]-thiadiazol-2-yl}-1H-indole, hydrochloride salt] it was 79.4 nM.

Source of the values: US7700634B2, “(Indol-3-yl) heterocycle derivatives as agonists of the cannabinoid CB1 receptor” (N.V. Organon, priority 2004, dated 2010).
